Results published in patent publication US20240398811A1, “PRC2 INHIBITORS FOR USE IN TREATING BLOOD DISORDERS” (ORIC Pharmaceuticals, Inc., priority 2021, published 2024).

Target: purified human, His-tagged PRC2 complex (Homo sapiens (Human), UniProt O75530)
Test: Hot Spot HMT assay, inhibition of PRC2 enzymatic activity
Type: biochemical
Details: 10 nM PRC2 complex, 1 μM 3H-SAM, core histone H3, 10-point dose-response
Source text: The assay uses purified human, His-tagged PRC2 complex, including N-terminal His-tagged EZH2 enzyme, N-terminal Flag-tagged embryonic ectoderm development protein (EED), N-terminal His-tagged suppressor of zeste 12 (SUZ12), N-terminal His-tagged AEBP2, and N-terminal His-tagged RbAp48. In this assay, the transfer of the tritiated methyl group from radiolabeled S-adenosyl methionine (SAM) to purified core histone protein by EZH2 is quantitated after filtration to determine the activity of the core PRC2 complex in the presence and absence of compound.
The initial starting concentration for the serial dilutions of each compound was 1.0 μM. […] SAH (S-(5-adenosyl)-L-homocysteine) was used as a positive control for assay validation.
An aliquot of each serial dilution of test compound was added to deep 384 well plate using Acoustic Technology instrument (Echo 550, LabCyte) containing reaction buffer (50 mM Tris-HCl (pH 8.)), 0.01% Brij35, 1 mM EDTA, 1 mM DTT, 1 mM PMSF and 1% DMSO), 10 nM purified PRC2 complex and 0.05 mg/ml core histone H3 in a 5 μl volume. The reaction was mixed gently and then pre-incubated for 20 min at 30° C. The enzymatic reaction was initiated by adding 1 μM S-Adenosyl-L-[methyl-^3H]methionine and incubated for 1 hr at 30° C. After 1 hr, the reaction product was detected using a filter binding method and the amount of tritiated H3 core histone was quantitated using a scintillation counter. […] Key: A=<100 nM; B=>100 nM-<500 nM; and C=>500 nM.

Chain of purified human, His-tagged PRC2 complex (O75530 whole entry): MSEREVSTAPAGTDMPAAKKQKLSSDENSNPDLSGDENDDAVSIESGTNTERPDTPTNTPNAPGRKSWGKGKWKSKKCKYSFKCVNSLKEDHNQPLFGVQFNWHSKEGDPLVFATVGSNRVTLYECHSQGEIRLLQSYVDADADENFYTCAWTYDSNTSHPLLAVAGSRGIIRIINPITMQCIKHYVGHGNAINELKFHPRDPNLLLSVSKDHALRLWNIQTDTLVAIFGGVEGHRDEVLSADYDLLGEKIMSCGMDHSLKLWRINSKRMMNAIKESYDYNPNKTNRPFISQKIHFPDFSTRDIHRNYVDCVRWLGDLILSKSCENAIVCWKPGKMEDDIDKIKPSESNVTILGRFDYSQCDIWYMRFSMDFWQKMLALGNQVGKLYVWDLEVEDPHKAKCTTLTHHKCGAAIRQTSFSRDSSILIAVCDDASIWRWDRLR
Chain of purified human, His-tagged PRC2 complex (Q15910 whole entry partner): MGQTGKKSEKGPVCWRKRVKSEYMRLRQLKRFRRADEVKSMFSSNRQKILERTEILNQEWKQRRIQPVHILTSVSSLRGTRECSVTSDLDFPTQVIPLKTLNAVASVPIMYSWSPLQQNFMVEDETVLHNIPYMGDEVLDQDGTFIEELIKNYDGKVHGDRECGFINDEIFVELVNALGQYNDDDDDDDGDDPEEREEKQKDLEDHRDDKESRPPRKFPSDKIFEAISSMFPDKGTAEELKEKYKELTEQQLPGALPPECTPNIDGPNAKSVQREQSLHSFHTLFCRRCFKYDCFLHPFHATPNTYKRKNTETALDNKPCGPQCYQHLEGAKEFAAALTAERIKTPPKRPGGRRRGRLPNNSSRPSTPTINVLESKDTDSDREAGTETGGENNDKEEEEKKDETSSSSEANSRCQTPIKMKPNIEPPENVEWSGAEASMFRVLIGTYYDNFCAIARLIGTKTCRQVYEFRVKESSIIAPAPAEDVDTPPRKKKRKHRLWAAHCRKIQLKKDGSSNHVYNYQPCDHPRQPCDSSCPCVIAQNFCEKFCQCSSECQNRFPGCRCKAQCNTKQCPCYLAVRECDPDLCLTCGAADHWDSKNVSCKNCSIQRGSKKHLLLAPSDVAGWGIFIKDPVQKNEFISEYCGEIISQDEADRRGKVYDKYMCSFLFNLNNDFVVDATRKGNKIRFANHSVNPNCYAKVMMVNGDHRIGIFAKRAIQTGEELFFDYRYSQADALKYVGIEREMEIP
Chain of purified human, His-tagged PRC2 complex (Q15022 whole entry partner): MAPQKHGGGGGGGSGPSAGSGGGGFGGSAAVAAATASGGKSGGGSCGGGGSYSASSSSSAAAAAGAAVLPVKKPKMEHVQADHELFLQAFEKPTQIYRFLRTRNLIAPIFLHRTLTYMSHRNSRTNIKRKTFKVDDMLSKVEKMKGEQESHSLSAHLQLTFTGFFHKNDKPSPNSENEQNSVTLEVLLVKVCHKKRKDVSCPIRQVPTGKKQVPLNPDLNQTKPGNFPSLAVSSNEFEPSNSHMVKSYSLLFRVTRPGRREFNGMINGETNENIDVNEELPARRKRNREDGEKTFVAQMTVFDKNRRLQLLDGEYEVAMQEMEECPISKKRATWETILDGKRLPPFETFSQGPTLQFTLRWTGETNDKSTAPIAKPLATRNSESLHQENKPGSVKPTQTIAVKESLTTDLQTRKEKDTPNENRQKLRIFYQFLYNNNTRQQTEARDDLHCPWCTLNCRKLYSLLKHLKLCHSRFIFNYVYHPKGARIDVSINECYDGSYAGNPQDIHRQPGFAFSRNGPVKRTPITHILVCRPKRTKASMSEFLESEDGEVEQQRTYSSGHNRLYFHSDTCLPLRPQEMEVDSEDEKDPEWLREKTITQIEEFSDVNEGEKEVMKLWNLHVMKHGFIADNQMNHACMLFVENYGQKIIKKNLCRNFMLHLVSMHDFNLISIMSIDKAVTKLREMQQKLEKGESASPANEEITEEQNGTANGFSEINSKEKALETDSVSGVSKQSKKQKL
Chain of purified human, His-tagged PRC2 complex (Q6ZN18 whole entry partner): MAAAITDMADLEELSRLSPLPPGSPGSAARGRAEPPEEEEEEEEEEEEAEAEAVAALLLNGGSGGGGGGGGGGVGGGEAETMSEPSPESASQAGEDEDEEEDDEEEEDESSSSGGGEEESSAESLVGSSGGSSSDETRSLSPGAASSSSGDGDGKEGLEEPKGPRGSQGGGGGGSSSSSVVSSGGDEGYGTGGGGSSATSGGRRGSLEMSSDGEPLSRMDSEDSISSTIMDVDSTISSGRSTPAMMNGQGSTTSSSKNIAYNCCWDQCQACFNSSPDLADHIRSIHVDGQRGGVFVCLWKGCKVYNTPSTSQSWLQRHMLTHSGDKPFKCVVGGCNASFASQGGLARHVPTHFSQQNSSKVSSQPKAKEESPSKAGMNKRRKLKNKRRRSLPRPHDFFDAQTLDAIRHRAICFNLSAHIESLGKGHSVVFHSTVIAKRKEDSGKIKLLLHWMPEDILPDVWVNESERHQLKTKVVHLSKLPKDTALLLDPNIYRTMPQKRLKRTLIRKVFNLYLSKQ
Chain of purified human, His-tagged PRC2 complex (Q09028 whole entry partner): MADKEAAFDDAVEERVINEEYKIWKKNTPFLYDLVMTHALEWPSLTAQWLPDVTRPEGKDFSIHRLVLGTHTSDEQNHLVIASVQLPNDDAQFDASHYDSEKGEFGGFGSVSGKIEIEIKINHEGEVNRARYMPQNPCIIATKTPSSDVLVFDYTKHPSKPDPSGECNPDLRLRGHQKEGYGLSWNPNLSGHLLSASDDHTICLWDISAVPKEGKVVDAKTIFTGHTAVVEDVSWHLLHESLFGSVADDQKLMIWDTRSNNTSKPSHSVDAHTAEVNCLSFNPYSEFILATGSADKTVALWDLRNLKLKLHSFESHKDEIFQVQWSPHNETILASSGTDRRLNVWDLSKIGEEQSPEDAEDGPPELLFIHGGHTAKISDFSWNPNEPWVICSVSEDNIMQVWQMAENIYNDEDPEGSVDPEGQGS

| IC50 [nM] | SMILES |
| --- | --- |
| < 100 | CNS(=O)(=O)c1ccc(-c2cnc(NCc3c(F)ccc4c3CCO4)n3cc(C#N)nc23)cc1 [Example 59, 4-(2-cyano-5-(((5-fluoro-2,3-dihydrobenzofuran-4-yl)methyl)amino)imidazo[1,2-c]pyrimidin-8-yl)-N-methylbenzenesulfonamide] |
| 100 to 500 | CN(C)c1ccc(-c2cnc(NCc3c(F)ccc4c3CCO4)n3cc(C#N)nc23)cn1 [Example 60, 8-(6-(dimethylamino)pyridin-3-yl)-5-(((5-fluoro-2,3-dihydrobenzofuran-4-yl)methyl)amino)imidazo[1,2-c]pyrimidine-2-carbonitrile] |
| < 100 | CN(C)Cc1ccc(-c2cnc(NCc3c(F)ccc4c3CCO4)n3cc(C#N)nc23)c(F)c1 [Example 61, 8-(4-((dimethylamino)methyl)-2-fluorophenyl)-5-(((5-fluoro-2,3-dihydrobenzofuran-4-yl)methyl)amino)imidazo[1,2-c]pyrimidine-2-carbonitrile] |
| < 100 | Cc1ncc(F)cc1-c1cnc(NCc2c(F)ccc3c2CCO3)n2cc(C#N)nc12 [Example 62, 5-(((5-fluoro-2,3-dihydrobenzofuran-4-yl)methyl)amino)-8-(5-fluoro-2-methylpyridin-3-yl)imidazo[1,2-c]pyrimidine-2-carbonitrile] |
| < 100 | CN(C)Cc1ccc(-c2cnc(NCc3c(F)ccc4c3CCO4)n3cc(C#N)nc23)cc1F [Example 63, 8-(4-((dimethylamino)methyl)-3-fluorophenyl)-5-(((5-fluoro-2,3-dihydrobenzofuran-4-yl)methyl)amino)imidazo[1,2-c]pyrimidine-2-carbonitrile] |
| < 100 | N#Cc1cn2c(NCc3c(F)ccc4c3CCO4)ncc(-c3cccnc3C(F)F)c2n1 [Example 64, 8-(2-(difluoromethyl)pyridin-3-yl)-5-(((5-fluoro-2,3-dihydrobenzofuran-4-yl)methyl)amino)imidazo[1,2-c]pyrimidine-2-carbonitrile] |
| 100 to 500 | Cc1nn(C[C@H](C)O)c(C)c1-c1cnc(NCc2c(F)ccc3c2CCO3)n2cc(C#N)nc12 [Example 65, (S)-5-(((5-fluoro-2,3-dihydrobenzofuran-4-yl)methyl)amino)-8-(1-(2-hydroxypropyl)-3,5-dimethyl-1H-pyrazol-4-yl)imidazo[1,2-c]pyrimidine-2-carbonitrile] |
| 100 to 500 | Cc1nn(C[C@@H](C)O)c(C)c1-c1cnc(NCc2c(F)ccc3c2CCO3)n2cc(C#N)nc12 [Example 66, (R)-5-(((5-fluoro-2,3-dihydrobenzofuran-4-yl)methyl)amino)-8-(1-(2-hydroxypropyl)-3,5-dimethyl-1H-pyrazol-4-yl)imidazo[1,2-c]pyrimidine-2-carbonitrile] |
| < 100 | Cc1ccc(-c2cnc(NCc3c(F)ccc4c3CCO4)n3cc(C#N)nc23)c(C)n1 [Example 67, 8-(2,6-dimethylpyridin-3-yl)-5-(((5-fluoro-2,3-dihydrobenzofuran-4-yl)methyl)amino)imidazo[1,2-c]pyrimidine-2-carbonitrile] |
| < 100 | N#Cc1cn2c(NCc3c(F)ccc4c3CCO4)ncc(-c3cnccn3)c2n1 [Example 68, 5-(((5-fluoro-2,3-dihydrobenzofuran-4-yl)methyl)amino)-8-(pyrazin-2-yl)imidazo[1,2-c]pyrimidine-2-carbonitrile] |
| < 100 | Cc1ncc(-c2cnc(NCc3c(F)ccc4c3CCO4)n3cc(C#N)nc23)cn1 [Example 69, 5-(((5-fluoro-2,3-dihydrobenzofuran-4-yl)methyl)amino)-8-(2-methylpyrimidin-5-yl)imidazo[1,2-c]pyrimidine-2-carbonitrile] |
| < 100 | Cc1ncc(-c2cnc(NCc3c(F)ccc4c3CCO4)n3cc(C#N)nc23)c(C)n1 [Example 71, 8-(2,4-dimethylpyrimidin-5-yl)-5-(((5-fluoro-2,3-dihydrobenzofuran-4-yl)methyl)amino)imidazo[1,2-c]pyrimidine-2-carbonitrile] |
| < 100 | Cc1nn(C)cc1-c1cnc(NCc2c(F)ccc3c2CCO3)n2cc(C#N)nc12 [Example 72, 8-(1,3-dimethyl-1H-pyrazol-4-yl)-5-(((5-fluoro-2,3-dihydrobenzofuran-4-yl)methyl)amino)imidazo[1,2-c]pyrimidine-2-carbonitrile] |
| < 100 | CS(=O)(=O)c1ccc(-c2cnc(NCc3c(F)ccc4c3CCO4)n3cc(C#N)nc23)cc1 [Example 73, 5-(((5-fluoro-2,3-dihydrobenzofuran-4-yl)methyl)amino)-8-(4-(methylsulfonyl)phenyl)imidazo[1,2-c]pyrimidine-2-carbonitrile] |
| < 100 | N#Cc1cn2c(NCc3c(F)ccc4c3CCO4)ncc(-c3ccc(CN4CCCC4)cc3)c2n1 [Example 74, 5-(((5-fluoro-2,3-dihydrobenzofuran-4-yl)methyl)amino)-8-(4-(pyrrolidin-1-ylmethyl)phenyl)imidazo[1,2-c]pyrimidine-2-carbonitrile] |
| < 100 | N#Cc1cn2c(NCc3c(F)ccc4c3CCO4)ncc(-c3ccc(CN4CCOCC4)cc3)c2n1 [Example 75, 5-(((5-fluoro-2,3-dihydrobenzofuran-4-yl)methyl)amino)-8-(4-(morpholinomethyl)phenyl)imidazo[1,2-c]pyrimidine-2-carbonitrile] |
| < 100 | Cc1cc(C(=O)N(C)C)ncc1-c1cnc(NCc2c(F)ccc3c2CCO3)n2cc(C#N)nc12 [Example 76, 5-(2-cyano-5-(((5-fluoro-2,3-dihydrobenzofuran-4-yl)methyl)amino)imidazo[1,2-c]pyrimidin-8-yl)-N,N,4-trimethylpicolinamide] |
| 100 to 500 | N#Cc1cn2c(NCc3c(F)ccc4c3CCO4)ncc(C3CC3)c2n1 [Example 77, 8-cyclopropyl-5-(((5-fluoro-2,3-dihydrobenzofuran-4-yl)methyl)amino)imidazo[1,2-c]pyrimidine-2-carbonitrile] |
| < 100 | Cc1n[nH]cc1-c1cnc(NCc2c(F)ccc3c2CCO3)n2cc(C#N)nc12 [Example 79, 5-(((5-fluoro-2,3-dihydrobenzofuran-4-yl)methyl)amino)-8-(3-methyl-1H-pyrazol-4-yl)imidazo[1,2-c]pyrimidine-2-carbonitrile] |
| < 100 | N#Cc1cn2c(NCc3c(F)ccc4c3CCO4)ncc(-c3cnn4c3CCC4)c2n1 [Example 80, 8-(5,6-dihydro-4H-pyrrolo[1,2-b]pyrazol-3-yl)-5-(((5-fluoro-2,3-dihydrobenzofuran-4-yl)methyl)amino)imidazo[1,2-c]pyrimidine-2-carbonitrile] |
| > 500 | Cc1cc(-c2cnc(NCc3c(F)ccc4sccc34)n3cc(C#N)nc23)n(C)n1 [Example 81, 8-(1,3-dimethyl-1H-pyrazol-5-yl)-5-(((5-fluorobenzo[b]thiophen-4-yl)methyl)amino)imidazo[1,2-c]pyrimidine-2-carbonitrile] |
| 100 to 500 | N#Cc1cn2c(NCc3c(F)ccc4c3CCO4)ncc(-c3ccc(S(=O)(=O)C(F)(F)F)cc3)c2n1 [Example 82, 5-(((5-fluoro-2,3-dihydrobenzofuran-4-yl)methyl)amino)-8-(4-((trifluoromethyl)sulfonyl)phenyl)imidazo[1,2-c]pyrimidine-2-carbonitrile] |
| < 100 | CN(C)Cc1ccc(-c2cnc(NCc3c(F)ccc4c3CCO4)n3cc(C#N)nc23)c(Cl)c1F [Example 83, 8-(2-chloro-4-((dimethylamino)methyl)-3-fluorophenyl)-5-(((5-fluoro-2,3-dihydrobenzofuran-4-yl)methyl)amino)imidazo[1,2-c]pyrimidine-2-carbonitrile] |
| 100 to 500 | Cc1cc(CN(C)C)c(F)cc1-c1cnc(NCc2c(F)ccc3c2CCO3)n2cc(C#N)nc12 [Example 84, 8-(4-((dimethylamino)methyl)-5-fluoro-2-methylphenyl)-5-(((5-fluoro-2,3-dihydrobenzofuran-4-yl)methyl)amino)imidazo[1,2-c]pyrimidine-2-carbonitrile] |
| < 100 | Cc1c(-c2cnc(NCc3c(F)ccc4c3CCO4)n3cc(C#N)nc23)ccc(CN(C)C)c1F [Example 85, 8-(4-((dimethylamino)methyl)-3-fluoro-2-methylphenyl)-5-(((5-fluoro-2,3-dihydrobenzofuran-4-yl)methyl)amino)imidazo[1,2-c]pyrimidine-2-carbonitrile] |
| < 100 | Cc1cc(-c2cnc(NCc3c(F)ccc4c3CCO4)n3cc(C#N)nc23)n(C)n1 [Example 86, 8-(1,3-dimethyl-1H-pyrazol-5-yl)-5-(((5-fluoro-2,3-dihydrobenzofuran-4-yl)methyl)amino)imidazo[1,2-c]pyrimidine-2-carbonitrile] |
| < 100 | Cc1cc(S(C)(=O)=O)ccc1-c1cnc(NCc2c(F)ccc3c2CCO3)n2cc(C#N)nc12 [Example 87, 5-(((5-fluoro-2,3-dihydrobenzofuran-4-yl)methyl)amino)-8-(2-methyl-4-(methylsulfonyl)phenyl)imidazo[1,2-c]pyrimidine-2-carbonitrile] |
| < 100 | COc1ncc(-c2cnc(NCc3c(F)ccc4c3CCO4)n3cc(C#N)nc23)c(C)n1 [Example 88, 5-(((5-fluoro-2,3-dihydrobenzofuran-4-yl)methyl)amino)-8-(2-methoxy-4-methylpyrimidin-5-yl)imidazo[1,2-c]pyrimidine-2-carbonitrile] |
